Tests used:
Cys12 [1] = target: T1, Cys12 (UniProt position 12, VVVGACGVGKS); assay: chemical modification
Cys12 [2] = target: T1, Cys12; assay: kinetics; details: 50 mM NaCl, 5 mM MgCl2, MHT buffer: 50 mM MES, 50 mM Hepes, 50 mM Tris, Pre-reduced protein reacting with ARS-853 (inhibitor-bound encounter complex), GDP form
Cys12 [3] = target: T1, Cys12; assay: NMR; details: 25 °C, 40 mM NaCl, 5 mM MgCl2, 20 mM Tris-Maleate, 5 mM MgCl2, 20 μM GDP, GDP-bound, inhibitor-free, folded
[4] = target: T2, KRAS^CCLW (KRAS^G12C/C51S/C80L/C118S/Y137W) (Homo sapiens, UniProt P01116, C118S/C51S/C80L/G12C/Y137W); assay: Stopped-flow fluorescence kinetics of KRAS^CCLW with covalent inhibitor (binding and ligation); details: for k +1: global fit KinTek Explorer, kon of reversible binding; for k +2 / k −1: global fit; for k +2: kinact; for k −1: koff of reversible binding
T2 construct: Truncated human KRAS4B (residues 2–169) was expressed from a modified pET21 bacterial expression vector; 6xHis (followed by TEV site) (N, cleaved yes); made in house; host or cells: Rosetta2 (DE3) cells (E. coli)
Description: Note that in this kinetic model, k+1 represents kon and k-1 represents koff for reversible inhibitor binding, and Kd can be calculated from the ratio of the two. In addition, k+2 represents kinact and k-2, not shown in the model, is 0 due to the irreversible formation of the covalent bond between KRAS and inhibitor.
The KRAS was first reduced by adding 10 mM DTT and incubating at 20 °C for 30 min and then passed over a PD-10 desalting column to remove excess DTT, then the protein was exchanged into a buffer containing 10 mM Hepes at pH 7.5, with 50 mM NaCl, 5 mM MgCl2, and 10 μM GDP. Samples were loaded into the syringes of an Applied Photophysics SX.18 MV stopped-flow spectrophotometer and allowed to equilibrate to 5 or 20 °C. The fluorescence changes were recorded after sample mixing via monitoring at 90° relative to incident light with excitation at 280 nm and emission >320 nm. Separate time courses were used to investigate the fast initial changes (0.2–1 s) and the much slower phase (100–1000 s) of decreasing fluorescence signal. Data were analyzed using Applied Photophysics software and fit to single (or double) exponentials as appropriate. To obtain rate constants and inhibition parameters, data from all (four or more) inhibitor concentrations at a given pH and 5 °C were fit globally using KinTek Global Kinetic Explorer (version 10.2.0) ([20], [38]) using Equation 2 (both steps are taken to be reversible, but the second step returns a reverse rate that is essentially 0). […] Briefly, data were fit to Equation 3 using Kaleidagraph software, version 4.5.4:(3) y=(kinact/Ki)×/(1+((kinact/Ki)×/kinact))

[5] = Inhibitor solubility in MHT reaction buffer; details: MHT buffer with 3% dimethyl sulfoxide
KRAS^CCLW = assay: ESI-TOF mass spectrometry of adduct formation with reduced or H2O2-oxidized KRAS^CCLW; details: for reaction with sulfenic acid form of protein: H2O2-oxidized KRAS^CCLW (-SOH)
Description: The samples were buffer exchanged using a P6 Bio-Gel column that was pre-equilibrated with 50 mM ammonium bicarbonate (ABC). […] Oxidation was achieved by addition of 1 to 10 molar equivalents of H2O2 for 10 min at 25 °C with 250 RPM shaking using a thermomixer. The reaction was quenched by passing through a P6 Bio-Gel spin column pre-equilibrated with ABC.
Samples were introduced via direct infusion at a flow rate of 20 μl/min using a syringe pump. Mass spectra were acquired over the range of 600 − 3200 m/z and then averaged and deconvoluted, and ion abundance was quantified using Agilent MassHunter Workstation software vB.02.00. Relative ion abundances were used to determine the reaction progress.

## GTPase KRas G12C (as studied by Hansen et al. 2018) (Homo sapiens; G12C)
Cys12 [1]; KRAS G12C reacting with N-benzylacrylamide, cited from earlier work
  pKa: 9.2
Cys12 [1]; inhibitor-free KRAS G12C, cited from earlier work
  pKa: 9.0 ± 0.2

## GTPase KRas (KRAS4B) G12C Cys-light Y137W (KRAS-CCLW) (Homo sapiens; G12C;C51S;C80L;C118S;Y137W)
Cys12 [2]; 5 °C
  pKa: 8.15 ± 0.13
Cys12 [2]; 20 °C
  pKa: 8.21 ± 0.09

## GTPase KRas (KRAS4B) G12C/C118S (Homo sapiens; G12C;C118S)
Cys12 [3]
  pKa: 7.6 ± 0.4
Cys12 [1]; 50 mM NaCl, 5 mM MgCl2, 15 mM Hepes, 15 mM MES, 5 mM MgCl2, 50 mM NaCl, 200 μM DTPA, N2-sparged, DTT removed, Reduced thiol, inhibitor-free. Nucleotide state not stated for this assay.
  pKa: 7.6 ± 0.1

## C=CC(=O)N1CC(N2CCN(C(=O)CNc3cc(C4(C)CC4)c(Cl)cc3O)CC2)C1 [ARS-853]
[4]; pH 7.0, 5 °C
  k +1: 1.35 ± 0.01
  k +2: 0.0073 ± 0.0004
  k −1: 49.7 ± 0.3
[4]; pH 7.5, 5 °C
  k +1: 1.69 ± 0.01
  k +2: 0.0169 ± 0.0005
  k −1: 51.1 ± 0.3
[4]; pH 8.0, 5 °C
  k +1: 1.50 ± 0.01
  k +2: 0.038 ± 0.006
  k −1: 51.2 ± 0.3
[4]; pH 8.5, 5 °C
  k +1: 1.45 ± 0.01
  k +2: 0.099 ± 0.001
  k −1: 61.7 ± 0.4
[4]; pH 9.0, 5 °C
  k +1: 0.976 ± 0.009
  k +2: 0.280 ± 0.003
  k −1: 75.1 ± 0.4
[5]
  inhibitor solubility (no problem encountered up to): ≥ 300 µM
KRAS^CCLW; H2O2-oxidized KRAS^CCLW (-SO2H)
  reaction with sulfinic acid form of protein: did not react
KRAS^CCLW
  reaction with sulfenic acid form of protein: did not react
KRAS^CCLW; reduced KRAS^CCLW (-SH), […] excess of inhibitor, 25 °C
  time to adduct formation with reduced protein: ≤ 5 min

## CC1(C)CC(=O)CC(=O)C1 [dimedone]
KRAS^CCLW
  reaction with sulfenic acid form of protein: reacted rapidly

Source: PMC9352912, “Oncogenic KRAS G12C: Kinetic and redox characterization of covalent inhibition” (The Journal of Biological Chemistry, 2022)
